According to ChEMBL document CHEMBL1201862, “PubChem BioAssay data set” (2004):
Activity calls are given as the source filed them.

Assays:
[1] = cytotoxicity toward DRD oncogenic fibroblasts, dose response, cell-based, non-viral oncogenic, luminescence (AID 1934); type: functional; conditions: Homo sapiens
Hexokinase HKDC1 = biological target: T1, Hexokinase HKDC1 (Homo sapiens, UniProt Q2TB90); experiment: HKDC1 hexokinase inhibitors, dose response, biochemical, W721R variant (AID 504729); type: functional
T1 sequence (Q2TB90 whole entry): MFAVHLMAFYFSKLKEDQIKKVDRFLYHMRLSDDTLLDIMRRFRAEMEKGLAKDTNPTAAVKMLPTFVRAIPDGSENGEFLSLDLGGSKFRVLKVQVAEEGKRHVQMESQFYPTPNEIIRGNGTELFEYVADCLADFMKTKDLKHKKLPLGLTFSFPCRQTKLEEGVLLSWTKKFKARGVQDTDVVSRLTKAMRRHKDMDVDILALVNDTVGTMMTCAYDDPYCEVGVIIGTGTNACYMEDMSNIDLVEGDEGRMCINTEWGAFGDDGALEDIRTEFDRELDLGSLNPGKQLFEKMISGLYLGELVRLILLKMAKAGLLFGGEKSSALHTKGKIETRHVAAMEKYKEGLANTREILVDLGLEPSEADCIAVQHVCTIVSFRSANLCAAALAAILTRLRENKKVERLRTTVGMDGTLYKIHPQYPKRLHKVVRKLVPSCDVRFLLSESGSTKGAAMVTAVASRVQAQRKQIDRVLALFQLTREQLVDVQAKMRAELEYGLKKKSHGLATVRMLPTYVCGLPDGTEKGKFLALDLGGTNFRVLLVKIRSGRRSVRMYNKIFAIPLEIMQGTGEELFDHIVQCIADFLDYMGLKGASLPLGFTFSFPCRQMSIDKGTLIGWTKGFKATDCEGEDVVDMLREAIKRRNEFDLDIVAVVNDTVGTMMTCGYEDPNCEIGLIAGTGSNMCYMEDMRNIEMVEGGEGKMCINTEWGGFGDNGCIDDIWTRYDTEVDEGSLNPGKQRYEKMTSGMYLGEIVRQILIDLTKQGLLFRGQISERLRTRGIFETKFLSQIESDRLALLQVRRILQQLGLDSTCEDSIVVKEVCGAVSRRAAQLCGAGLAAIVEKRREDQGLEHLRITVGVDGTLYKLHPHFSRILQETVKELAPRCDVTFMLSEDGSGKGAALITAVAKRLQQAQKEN

[2] = biological target: Tyrosyl-DNA phosphodiesterase 2 (Homo sapiens, UniProt O95551); experiment: human TDP2 enzyme inhibitors, dose response, biochemical, epi absorbance, IC50 (AID 743297)
[3] = Luminescence Cell-Based Dose Response HTS to Identify Inhibitors of 5'UTR Stem-Loop Driven Prion Protein mRNA Translation in H4 Neuroglioblastoma Cells. [Related pubchem assays: 1827 (Project Summary), 1813 (Primary HTS)]; type: functional
[4] = biological target: Luciferin 4-monooxygenase (Photinus pyralis, UniProt P08659); experiment: Counter Screen for Luciferase-based Assay Positives. [Related pubchem assays: 620, 618, 411 ]
[5] = Artemis endonuclease inhibitor potency, dose response, biochemical, fluorescence intensity (AID 720701); type: functional;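 note: Artemis endonuclease enzyme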
[6] = inhibitors of firefly luciferase expression or activity, dose response, H4 neuroglioma cells, luminescence (AID 1990); type: functional, cell-based
HT-1080 = experiment: cytotoxicity in HT1080 fibrosarcoma cells, cell-based, fluorescence readout (AID 620); type: functional; conditions: Homo sapiens
BJ [7] = experiment: cells; type: functional, cell-based; conditions: Homo sapiens
BJ [8] = experiment: cytotoxicity toward BJ-TERT fibroblasts, dose response, cell-based, RAS-independent, luminescence (AID 1933); type: functional; conditions: Homo sapiens
BJ [9] = experiment: cytotoxicity toward BJ-TERT-LT-ST fibroblasts, dose response, cell-based, RAS-independent, luminescence (AID 1935); type: functional; conditions: Homo sapiens;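 note: BJ fibroblasts immortalized with TERT plus LT and ST oncogenes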
[10] = inhibitors of SNCA 5'UTR-driven reporter translation, confirmation, H4 neuroglioma cells, luminescence (AID 1988); type: functional, cell-based
[11] = biological target: T2, Apoptotic protease-activating factor 1 (Homo sapiens, UniProt O14727); type: functional
T2 sequence (O14727 whole entry): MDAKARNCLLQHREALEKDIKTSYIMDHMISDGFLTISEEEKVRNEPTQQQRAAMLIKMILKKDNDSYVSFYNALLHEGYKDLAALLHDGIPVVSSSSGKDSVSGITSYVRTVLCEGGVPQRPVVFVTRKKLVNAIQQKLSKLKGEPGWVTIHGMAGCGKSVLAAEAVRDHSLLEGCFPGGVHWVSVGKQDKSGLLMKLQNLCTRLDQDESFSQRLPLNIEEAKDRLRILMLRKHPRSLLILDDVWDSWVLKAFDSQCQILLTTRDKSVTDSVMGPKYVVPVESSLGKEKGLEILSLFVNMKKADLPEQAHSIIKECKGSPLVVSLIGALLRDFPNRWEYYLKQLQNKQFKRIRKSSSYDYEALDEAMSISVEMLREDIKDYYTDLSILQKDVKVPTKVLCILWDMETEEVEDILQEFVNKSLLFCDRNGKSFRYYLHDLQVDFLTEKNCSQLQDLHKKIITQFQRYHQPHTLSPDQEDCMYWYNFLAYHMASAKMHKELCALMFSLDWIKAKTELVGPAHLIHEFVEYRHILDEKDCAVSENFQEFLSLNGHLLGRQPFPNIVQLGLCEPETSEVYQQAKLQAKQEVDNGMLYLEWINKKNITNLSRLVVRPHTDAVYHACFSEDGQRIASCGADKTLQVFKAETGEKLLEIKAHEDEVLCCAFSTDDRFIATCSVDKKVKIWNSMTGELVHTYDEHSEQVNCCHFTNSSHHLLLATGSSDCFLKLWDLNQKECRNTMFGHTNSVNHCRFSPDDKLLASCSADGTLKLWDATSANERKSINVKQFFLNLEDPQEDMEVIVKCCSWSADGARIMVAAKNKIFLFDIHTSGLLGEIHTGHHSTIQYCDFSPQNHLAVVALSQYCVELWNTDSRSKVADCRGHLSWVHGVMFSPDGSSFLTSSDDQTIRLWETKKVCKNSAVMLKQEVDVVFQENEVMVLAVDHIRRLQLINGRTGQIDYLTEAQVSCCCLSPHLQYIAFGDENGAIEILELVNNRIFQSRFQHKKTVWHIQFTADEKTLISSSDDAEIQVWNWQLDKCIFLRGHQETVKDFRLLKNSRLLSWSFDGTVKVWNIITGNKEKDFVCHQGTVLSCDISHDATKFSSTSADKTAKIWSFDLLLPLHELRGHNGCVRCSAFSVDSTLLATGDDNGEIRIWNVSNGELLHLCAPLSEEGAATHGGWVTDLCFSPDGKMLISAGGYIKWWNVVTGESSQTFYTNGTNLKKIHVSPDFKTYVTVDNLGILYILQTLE

[12] = biological target: Mitochondrial peptide methionine sulfoxide reductase (Bos taurus, UniProt P54149); type: functional;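 note: absorbance read-out, biochemical high-throughput dose-response screen for MsrA inhibitors, confirmatory; recombinant bovine MsrA coupled to E. coli TrxB with NADPH and selenocystamine; potency is for inhibitors of MsrA activity on DMSO substrate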
[13] = biological target: Mothers against decapentaplegic homolog 3 (Homo sapiens, UniProt P84022); experiment: SMAD3 transcription factor inhibitors, dose response (AID 715); type: functional
[14] = biological target: DNA (cytosine-5)-methyltransferase 1 (Homo sapiens, UniProt P26358); experiment: DNMT1 methyltransferase inhibitors, confirmation, biochemical, fluorescent molecular beacon (AID 602386); type: functional
Estrogen receptor = biological target: T3, Estrogen receptor (Homo sapiens, UniProt P03372); experiment: potentiators of ERα–SRC-1 coactivator binding, dose response, biochemical, TR-FRET, ERα LBD (AID 737)
T3 sequence (P03372 whole entry): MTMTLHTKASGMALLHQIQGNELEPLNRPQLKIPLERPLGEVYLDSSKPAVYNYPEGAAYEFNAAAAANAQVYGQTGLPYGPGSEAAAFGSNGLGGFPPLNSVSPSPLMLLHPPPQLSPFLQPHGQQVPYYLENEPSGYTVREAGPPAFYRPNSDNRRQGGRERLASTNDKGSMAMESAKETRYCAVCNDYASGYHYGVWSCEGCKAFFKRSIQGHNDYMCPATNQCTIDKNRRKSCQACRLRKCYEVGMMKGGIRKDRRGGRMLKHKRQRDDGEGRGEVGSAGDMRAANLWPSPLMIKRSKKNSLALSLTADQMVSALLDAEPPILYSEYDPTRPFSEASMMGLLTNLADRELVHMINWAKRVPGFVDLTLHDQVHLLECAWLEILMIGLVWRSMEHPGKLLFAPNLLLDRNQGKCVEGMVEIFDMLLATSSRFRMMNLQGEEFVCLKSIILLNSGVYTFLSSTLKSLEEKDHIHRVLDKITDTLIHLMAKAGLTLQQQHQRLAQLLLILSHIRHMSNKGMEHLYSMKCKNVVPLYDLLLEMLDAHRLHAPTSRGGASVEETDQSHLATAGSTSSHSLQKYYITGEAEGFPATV

[15] = biological target: Neuropeptide Y receptor type 2 (Homo sapiens, UniProt P49146); experiment: Fluorescence-based cell-based high-throughput dose response assay for agonists of NPY-Y2. [Related pubchem assays: 1703 (Screening assay (CNGC inhibitors).), 1359 (Screening assay (NPY-Y2 potentiators or agonists).), 1304 (Screening assay (NPY-Y1 potentiators or agonists).), 1710 (Screening assay (NPY-Y2 agonists).), 1791 (Summary AID.)]; type: functional
[16] = biological target: Neuropeptide Y receptor type 1 (Homo sapiens, UniProt P25929); experiment: Fluorescence-based counterscreen for agonists of NPY-Y2: cell-based high-throughput dose response assay for agonists of NPY-Y1.; type: functional
HEK293 = experiment: Fluorescence-based counterscreen for potentiators or agonists of NPY-Y2: cell-based high-throughput dose response assay to identify inhibitors of cyclic nucleotide gated ion channel (CNGC) activity. In this assay, the parental HEK293 cell line transfected with a cyclic-nucleotide gated ion channel (CNGC)-based cAMP sensor is used to measure inhibition of isoproterenol-induced CNGC activity by test compound.; type: functional; conditions: Homo sapiens;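 note: stimulus is 1 µM isoproterenol at EC100 plus PDE inhibitor Ro 20-1724 at 25 µM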

Chain of DNA (cytosine-5)-methyltransferase 1 (P26358 whole entry, the tested form may be a part): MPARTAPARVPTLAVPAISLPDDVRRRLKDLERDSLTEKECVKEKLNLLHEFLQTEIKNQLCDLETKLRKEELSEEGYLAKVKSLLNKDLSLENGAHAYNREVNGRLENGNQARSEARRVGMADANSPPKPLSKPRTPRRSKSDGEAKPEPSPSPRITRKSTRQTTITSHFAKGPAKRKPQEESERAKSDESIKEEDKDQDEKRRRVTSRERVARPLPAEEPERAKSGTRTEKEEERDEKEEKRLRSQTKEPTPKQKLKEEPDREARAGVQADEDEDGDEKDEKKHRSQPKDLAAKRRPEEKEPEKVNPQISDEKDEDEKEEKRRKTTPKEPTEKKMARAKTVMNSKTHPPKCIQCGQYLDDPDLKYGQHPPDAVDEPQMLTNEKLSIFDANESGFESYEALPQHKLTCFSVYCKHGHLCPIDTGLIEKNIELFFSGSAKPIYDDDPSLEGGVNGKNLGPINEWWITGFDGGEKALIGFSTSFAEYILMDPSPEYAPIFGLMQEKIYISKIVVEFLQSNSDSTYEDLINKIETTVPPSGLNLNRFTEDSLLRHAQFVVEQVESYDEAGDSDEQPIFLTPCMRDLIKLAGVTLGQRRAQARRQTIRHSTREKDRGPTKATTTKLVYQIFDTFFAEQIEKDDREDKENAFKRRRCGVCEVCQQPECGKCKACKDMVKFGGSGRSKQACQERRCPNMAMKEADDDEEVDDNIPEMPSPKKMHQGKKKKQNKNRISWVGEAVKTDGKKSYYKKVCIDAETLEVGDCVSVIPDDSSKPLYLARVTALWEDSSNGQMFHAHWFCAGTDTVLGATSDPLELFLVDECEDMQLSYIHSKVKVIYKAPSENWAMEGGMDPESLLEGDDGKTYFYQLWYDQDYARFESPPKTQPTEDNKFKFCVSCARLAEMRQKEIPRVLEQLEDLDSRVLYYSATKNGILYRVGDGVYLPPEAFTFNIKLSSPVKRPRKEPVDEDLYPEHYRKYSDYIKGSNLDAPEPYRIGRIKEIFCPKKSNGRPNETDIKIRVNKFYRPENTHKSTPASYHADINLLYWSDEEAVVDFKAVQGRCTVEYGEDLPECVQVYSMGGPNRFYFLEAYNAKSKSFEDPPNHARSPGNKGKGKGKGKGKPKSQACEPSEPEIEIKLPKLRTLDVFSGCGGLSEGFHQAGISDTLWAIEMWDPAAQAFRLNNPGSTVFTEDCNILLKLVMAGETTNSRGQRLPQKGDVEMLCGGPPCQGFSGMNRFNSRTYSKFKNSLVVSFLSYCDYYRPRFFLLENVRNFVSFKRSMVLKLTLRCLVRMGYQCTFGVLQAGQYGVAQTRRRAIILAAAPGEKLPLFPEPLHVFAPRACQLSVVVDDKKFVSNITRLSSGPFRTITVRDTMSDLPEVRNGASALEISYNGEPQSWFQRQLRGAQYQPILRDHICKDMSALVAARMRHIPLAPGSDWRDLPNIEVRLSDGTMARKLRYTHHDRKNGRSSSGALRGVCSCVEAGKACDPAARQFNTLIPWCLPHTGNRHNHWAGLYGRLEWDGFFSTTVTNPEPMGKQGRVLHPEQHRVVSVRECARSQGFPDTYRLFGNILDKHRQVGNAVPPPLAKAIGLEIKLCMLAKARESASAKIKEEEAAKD
Chain of Luciferin 4-monooxygenase (P08659 whole entry): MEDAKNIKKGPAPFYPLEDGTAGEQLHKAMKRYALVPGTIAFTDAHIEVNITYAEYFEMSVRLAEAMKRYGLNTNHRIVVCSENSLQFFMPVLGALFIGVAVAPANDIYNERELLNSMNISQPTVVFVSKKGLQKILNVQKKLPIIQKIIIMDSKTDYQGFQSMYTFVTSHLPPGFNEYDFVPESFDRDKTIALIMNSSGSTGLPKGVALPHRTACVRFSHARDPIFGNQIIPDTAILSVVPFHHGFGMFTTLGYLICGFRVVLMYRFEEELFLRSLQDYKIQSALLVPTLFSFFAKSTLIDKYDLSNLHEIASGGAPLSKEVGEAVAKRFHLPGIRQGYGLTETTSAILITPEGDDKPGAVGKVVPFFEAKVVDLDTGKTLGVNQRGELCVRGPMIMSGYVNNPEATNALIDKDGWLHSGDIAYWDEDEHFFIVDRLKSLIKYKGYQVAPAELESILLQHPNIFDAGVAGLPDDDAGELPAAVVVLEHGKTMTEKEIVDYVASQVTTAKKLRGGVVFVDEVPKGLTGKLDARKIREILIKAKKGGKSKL
Chain of Mitochondrial peptide methionine sulfoxide reductase (P54149 whole entry): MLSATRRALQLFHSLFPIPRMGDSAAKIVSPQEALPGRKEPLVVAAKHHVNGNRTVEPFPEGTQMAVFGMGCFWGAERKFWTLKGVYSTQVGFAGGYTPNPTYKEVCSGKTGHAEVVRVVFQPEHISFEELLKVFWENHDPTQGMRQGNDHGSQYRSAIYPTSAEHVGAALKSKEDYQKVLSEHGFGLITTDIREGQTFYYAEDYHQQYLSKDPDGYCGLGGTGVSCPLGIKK
Chain of Tyrosyl-DNA phosphodiesterase 2 (O95551 whole entry): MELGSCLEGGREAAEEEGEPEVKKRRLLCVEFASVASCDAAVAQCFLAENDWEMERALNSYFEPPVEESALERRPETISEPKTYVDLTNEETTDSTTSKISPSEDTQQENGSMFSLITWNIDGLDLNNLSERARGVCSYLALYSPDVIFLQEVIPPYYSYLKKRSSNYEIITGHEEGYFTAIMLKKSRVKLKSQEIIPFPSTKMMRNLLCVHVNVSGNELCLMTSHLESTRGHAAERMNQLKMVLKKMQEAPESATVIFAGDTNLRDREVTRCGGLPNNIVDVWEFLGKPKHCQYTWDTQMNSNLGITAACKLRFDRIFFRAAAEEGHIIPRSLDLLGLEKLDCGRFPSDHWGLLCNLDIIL
Chain of Neuropeptide Y receptor type 2 (P49146 whole entry): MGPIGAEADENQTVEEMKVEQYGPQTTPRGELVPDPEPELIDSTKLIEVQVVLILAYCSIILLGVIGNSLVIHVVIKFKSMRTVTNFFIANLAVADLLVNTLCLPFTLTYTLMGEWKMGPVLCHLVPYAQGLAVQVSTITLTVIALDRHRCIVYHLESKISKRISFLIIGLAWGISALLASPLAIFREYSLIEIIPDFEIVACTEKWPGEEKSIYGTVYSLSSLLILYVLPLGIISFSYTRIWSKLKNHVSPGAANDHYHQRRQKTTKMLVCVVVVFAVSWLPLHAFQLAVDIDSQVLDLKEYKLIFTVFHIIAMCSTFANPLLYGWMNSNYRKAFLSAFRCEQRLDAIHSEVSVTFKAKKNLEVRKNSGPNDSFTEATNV
Chain of Mothers against decapentaplegic homolog 3 (P84022 whole entry): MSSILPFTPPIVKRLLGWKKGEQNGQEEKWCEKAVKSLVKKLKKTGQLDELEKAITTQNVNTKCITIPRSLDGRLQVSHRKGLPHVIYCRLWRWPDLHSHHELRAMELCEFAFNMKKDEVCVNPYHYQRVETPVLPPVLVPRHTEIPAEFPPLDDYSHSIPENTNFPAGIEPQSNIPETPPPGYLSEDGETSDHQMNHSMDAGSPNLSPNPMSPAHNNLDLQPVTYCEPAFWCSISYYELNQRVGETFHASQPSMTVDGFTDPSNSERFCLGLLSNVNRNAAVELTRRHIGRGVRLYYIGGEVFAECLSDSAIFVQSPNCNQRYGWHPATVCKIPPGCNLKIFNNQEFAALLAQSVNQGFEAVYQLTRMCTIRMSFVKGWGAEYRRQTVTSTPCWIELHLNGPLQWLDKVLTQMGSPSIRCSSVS
Chain of Neuropeptide Y receptor type 1 (P25929 whole entry): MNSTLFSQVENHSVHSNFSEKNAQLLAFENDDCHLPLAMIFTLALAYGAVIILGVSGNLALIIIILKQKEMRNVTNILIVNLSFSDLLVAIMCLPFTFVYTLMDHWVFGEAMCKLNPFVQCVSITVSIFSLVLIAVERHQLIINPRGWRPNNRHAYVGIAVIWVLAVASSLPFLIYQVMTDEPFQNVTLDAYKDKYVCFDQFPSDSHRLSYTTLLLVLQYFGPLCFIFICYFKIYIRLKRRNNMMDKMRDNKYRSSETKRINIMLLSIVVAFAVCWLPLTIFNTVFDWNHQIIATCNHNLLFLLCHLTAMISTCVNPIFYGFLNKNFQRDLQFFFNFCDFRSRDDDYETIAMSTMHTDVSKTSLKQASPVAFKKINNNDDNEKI

In the case of `O=C1C(N2CCOCC2)=C(n2nnc3ccccc32)C(=O)c2ccccc21`, the EC50 [1] is reported as 10.5 µM (active), the IC50 (Hexokinase HKDC1) is reported as 7.01 µM (active) and the IC50 [2] is reported as 10 µM (inactive). The EC50 [3] was 8.93 µM (active), the EC50 [4] was 1.63 µM (active) and the IC50 [5] was 7.75 µM (active). The EC50 [6] was > 120 µM (not active), the EC50 (HT-1080) was 12.3 µM (active) and the EC50 (BJ [7]) was 5.06 µM (active). For the same compound, the EC50 (BJ [8]) was 8.79 µM (active), the EC50 (BJ [9]) was > 150 µM (inconclusive) and the EC50 [10] was > 120 µM (not active). For the same compound, the IC50 [11] was 4.02 µM (active), the IC50 [12] was 9.33 µM (active) and the IC50 [13] was 22 µM (active).

For `O=C(CSc1nc2c(cnn2-c2ccccc2)c(=O)[nH]1)c1ccc(Cl)cc1`, the IC50 [14] was 9.12 µM (active) and the EC50 (Estrogen receptor) was 9.92 µM (active).

In the case of `COc1ccc(Cn2cnc3c(NS(C)(=O)=O)c(C)c(C)cc32)cc1`, the EC50 [15] is reported as > 35.4 µM (not active), the EC50 [16] is reported as 19.3 µM (not active) and the EC50 (HEK293) is reported as > 35.4 µM (not active).
